{"source": "paper PMC7589200", "about": "“Identification of Putative Non-Substrate-Based XT-I Inhibitors by Natural Product Library Screening” (Biomolecules, 2020)", "key": {"XT-I": {"molecular_target": "T1, XT-I (Homo sapiens, UniProt Q86Y38)", "T1 sequence (Q86Y38 260-959 limits assumed)": "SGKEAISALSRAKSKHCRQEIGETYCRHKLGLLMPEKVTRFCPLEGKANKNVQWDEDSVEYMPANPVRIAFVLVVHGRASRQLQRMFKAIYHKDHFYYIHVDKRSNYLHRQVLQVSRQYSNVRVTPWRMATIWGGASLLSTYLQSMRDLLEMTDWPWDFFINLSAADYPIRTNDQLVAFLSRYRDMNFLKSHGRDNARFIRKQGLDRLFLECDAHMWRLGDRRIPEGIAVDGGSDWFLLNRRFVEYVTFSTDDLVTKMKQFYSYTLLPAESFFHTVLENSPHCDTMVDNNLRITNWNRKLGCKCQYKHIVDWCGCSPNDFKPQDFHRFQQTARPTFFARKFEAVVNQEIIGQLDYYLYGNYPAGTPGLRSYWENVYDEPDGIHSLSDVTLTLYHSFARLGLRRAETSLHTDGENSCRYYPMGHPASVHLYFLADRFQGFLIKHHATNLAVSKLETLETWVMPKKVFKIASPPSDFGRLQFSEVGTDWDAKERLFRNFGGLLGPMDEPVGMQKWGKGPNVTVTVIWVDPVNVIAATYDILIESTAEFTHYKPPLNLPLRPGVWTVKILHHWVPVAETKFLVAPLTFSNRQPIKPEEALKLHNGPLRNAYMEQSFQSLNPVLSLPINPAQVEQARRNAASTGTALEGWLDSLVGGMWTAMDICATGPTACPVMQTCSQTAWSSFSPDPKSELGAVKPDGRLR", "experiment": "IC50 determination, UPLC/ESI-MS/MS XT-I assay", "type": "biochemical", "source_text": "The measurement of relative XT-I activity among different samples is based on the XT-catalyzed incorporation of xylose from UDP-D-xylose on a modified bikunin-derived peptide after a fixed reaction time. The assay was originally developed for the determination of XT activity in human- or cell-culture-derived samples [13] by ultra-performance liquid chromatography/electrospray ionization tandem mass spectrometry (UPLC/ESI-MS/MS). The UPLC/ESI-MS/MS XT assay was recently modified toward a XT-I selective activity determination in human serum and cell culture samples (unpublished data). The relative intensities of the xylosylated peptide species abundance obtained with the respective m/z ratio were directly proportional to the relative XT-I activity of the sample. The XT-I activity determined is expressed in arbitrary units and normalized to the total protein content per 1 mL sample volume in cell culture approaches. A calibrator probe with a fixed amount of recombinant XT-I enzyme was included in every UPLC-MS/MS XT-I assay for assay comparability across multiple runs. […]\nInhibitor candidates from the NP compound library were screened using the UPLC/ESI-MS/MS XT-I assay with recombinant XT-I protein solution from pgsA-6HisXT1-K4 cells. […] The XT-I activity of the protein-inhibitor mixtures were determined by UPLC/ESI-MS/MS as described above. […]"}, "XYLT1 mRNA expression": {"test_system": "XYLT1 mRNA expression", "experiment": "XYLT1 mRNA expression in NHDFs by qRT-PCR", "type": "cell-based, human", "details": "48 h; for TGF-β1-mediated XYLT1 mRNA expression relative to TGF-β1 only: with TGF-β1 (5 μg/L)", "method": "A former established cell culture model was utilized to investigate the effect of putative XT-I inhibitors on NHDFs. The inhibition studies were carried out with final inhibitor concentrations of 0.5, 1.0, 2.0 or 4.0 μM diluted in fully supplemented DMEM. In brief, unless otherwise stated, NHDFs were cultivated with a low density of 50 cells per mm^2 on a hard tissue culture substrate (100 × 20 mm dish) in fully supplemented DMEM with or without additional TGF-β1 (5 μg/L) for 24 h, promoting their transdifferentiation into proto-myofibroblasts. Thereafter, cells were treated with celastrol or amphotericin B in the presence or absence of TGF-β1 (5 μg/L) for an additional 48 h. Negative controls treated with solvent only were included for every sampling time. The final DMSO content of 0.04% (v/v) was kept constant in all inhibition experiments. […]\nThe RNA extraction from cell lysates and cDNA synthesis for mRNA and miRNA expression analysis were performed as described previously.\nQuantitative real-time polymerase chain reaction (qRT-PCR) analysis using a LightCycler 480 Instrument II system (Roche, Basel, Swiss) was performed as previously described. The qRT-PCR experiments were conducted with three biological and three technical replicates per donor-derived primary cell culture, unless otherwise stated. The intron-spanning primer sequences used are listed in [7] and Table 1. The geometric mean of the expression levels of the housekeeping genes SDHA, RPL13A and B2M were calculated for expression normalization. The relative target gene mRNA expressions were determined by the ΔΔCT method considering the PCR efficiency. All normalized gene expression levels shown were referred to the respective target gene expression of one primary cell culture sample for the relative comparison of multiple biological samples per experiment and figures."}}, "note": "Like-named read-outs stand apart in the source and are kept apart here.", "data": [{"molecule": "C[C@@H]1[C@H](O)[C@@H](C)/C=C/C=C/C=C/C=C/C=C/C=C/C=C/[C@H](O[C@@H]2O[C@H](C)[C@@H](O)[C@H](N)[C@@H]2O)C[C@@H]2O[C@](O)(C[C@@H](O)C[C@@H](O)[C@H](O)CC[C@@H](O)C[C@@H](O)CC(=O)O[C@H]1C)C[C@H](O)[C@H]2C(=O)O", "note": "[Compound 17, Amphotericin B]", "values": [{"measurement": "IC50", "setting": "XT-I; 15 μM UDP-D-xylose, 10.5 μM acceptor peptide, 1 h preincubation at RT, read-out: IC50", "result": "12.2 ± 1", "unit": "µM"}, {"measurement": "TGF-β1-mediated XYLT1 mRNA expression relative to TGF-β1 only", "setting": "XYLT1 mRNA expression; 0.5 μM", "result": "0.9 ± 0.07", "unit": "fold"}, {"measurement": "basal XYLT1 mRNA expression relative to control", "setting": "XYLT1 mRNA expression; 0.5 μM, without TGF-β1", "result": "0.6 ± 0.06", "unit": "fold"}, {"measurement": "TGF-β1-mediated XYLT1 mRNA expression relative to TGF-β1 only", "setting": "XYLT1 mRNA expression; 1.0 μM", "result": "0.8 ± 0.06", "unit": "fold"}, {"measurement": "basal XYLT1 mRNA expression relative to control", "setting": "XYLT1 mRNA expression; 1.0 μM, without TGF-β1", "result": "0.6 ± 0.05", "unit": "fold"}, {"measurement": "TGF-β1-mediated XYLT1 mRNA expression relative to TGF-β1 only", "setting": "XYLT1 mRNA expression; 2.0 μM", "result": "0.7 ± 0.03", "unit": "fold"}, {"measurement": "basal XYLT1 mRNA expression relative to DMSO control", "setting": "XYLT1 mRNA expression; 2.0 μM, without TGF-β1", "result": "0.6 ± 0.09", "unit": "fold"}]}, {"molecule": "CC1=C(O)C(=O)C=C2C1=CC=C1[C@@]2(C)CC[C@@]2(C)[C@@H]3C[C@](C)(C(=O)O)CC[C@]3(C)CC[C@]12C", "note": "[Compound 68, Celastrol]", "values": [{"measurement": "IC50", "setting": "XT-I", "result": "11 ± 1", "unit": "µM"}, {"measurement": "TGF-β1-mediated XYLT1 mRNA expression relative to TGF-β1 only", "setting": "XYLT1 mRNA expression; 0.5 μM", "result": "nor effected"}, {"measurement": "basal XYLT1 mRNA expression relative to control", "setting": "XYLT1 mRNA expression; 0.5 μM, without TGF-β1", "result": "neither changed"}, {"measurement": "TGF-β1-mediated XYLT1 mRNA expression relative to TGF-β1 only", "setting": "XYLT1 mRNA expression; 1.0 μM", "result": "0.8 ± 0.07", "unit": "fold"}, {"measurement": "basal XYLT1 mRNA expression relative to control", "setting": "XYLT1 mRNA expression; 1.0 μM, without TGF-β1", "result": "0.8 ± 0.06", "unit": "fold"}]}]}
